Measured values taken from patent publication US11572590B2, “Methods for evaluating tumor cell spheroids using 3D microfluidic cell culture device” (Dana-Farber Cancer Institute, Inc., priority 2017, dated 2023).
Where two headings read alike, the source gives them in different places.

Columns and labels:
[1] = target: T1, off-target kinases (Homo sapiens, UniProt Q9H093); experiment: SelectScreen Kinase Profiling, single point inhibition and IC50 for off-target kinases; assay type: biochemical; settings: NUAK2, LanthaScreen Binding
T1 sequence (Q9H093 1-628): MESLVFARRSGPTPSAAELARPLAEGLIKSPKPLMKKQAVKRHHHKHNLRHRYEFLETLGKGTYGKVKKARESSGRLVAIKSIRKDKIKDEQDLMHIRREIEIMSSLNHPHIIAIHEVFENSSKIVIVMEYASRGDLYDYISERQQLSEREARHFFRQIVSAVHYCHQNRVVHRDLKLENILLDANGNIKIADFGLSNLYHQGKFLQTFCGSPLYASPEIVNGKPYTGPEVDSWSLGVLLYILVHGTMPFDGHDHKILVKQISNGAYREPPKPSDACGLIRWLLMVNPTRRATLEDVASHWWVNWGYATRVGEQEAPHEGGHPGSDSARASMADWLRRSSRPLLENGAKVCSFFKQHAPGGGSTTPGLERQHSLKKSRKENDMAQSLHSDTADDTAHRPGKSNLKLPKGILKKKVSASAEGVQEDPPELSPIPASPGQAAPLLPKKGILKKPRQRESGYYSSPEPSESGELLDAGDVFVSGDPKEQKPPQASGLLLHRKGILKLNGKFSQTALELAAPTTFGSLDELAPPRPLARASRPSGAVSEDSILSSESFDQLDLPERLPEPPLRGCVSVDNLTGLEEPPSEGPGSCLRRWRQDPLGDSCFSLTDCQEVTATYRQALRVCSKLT

[2] = target: T2, off-target kinases (Homo sapiens, UniProt O15146); experiment: as above; assay type: biochemical; settings: MUSK, ZLYTE, ATP Km app
T2 sequence (O15146 24-869): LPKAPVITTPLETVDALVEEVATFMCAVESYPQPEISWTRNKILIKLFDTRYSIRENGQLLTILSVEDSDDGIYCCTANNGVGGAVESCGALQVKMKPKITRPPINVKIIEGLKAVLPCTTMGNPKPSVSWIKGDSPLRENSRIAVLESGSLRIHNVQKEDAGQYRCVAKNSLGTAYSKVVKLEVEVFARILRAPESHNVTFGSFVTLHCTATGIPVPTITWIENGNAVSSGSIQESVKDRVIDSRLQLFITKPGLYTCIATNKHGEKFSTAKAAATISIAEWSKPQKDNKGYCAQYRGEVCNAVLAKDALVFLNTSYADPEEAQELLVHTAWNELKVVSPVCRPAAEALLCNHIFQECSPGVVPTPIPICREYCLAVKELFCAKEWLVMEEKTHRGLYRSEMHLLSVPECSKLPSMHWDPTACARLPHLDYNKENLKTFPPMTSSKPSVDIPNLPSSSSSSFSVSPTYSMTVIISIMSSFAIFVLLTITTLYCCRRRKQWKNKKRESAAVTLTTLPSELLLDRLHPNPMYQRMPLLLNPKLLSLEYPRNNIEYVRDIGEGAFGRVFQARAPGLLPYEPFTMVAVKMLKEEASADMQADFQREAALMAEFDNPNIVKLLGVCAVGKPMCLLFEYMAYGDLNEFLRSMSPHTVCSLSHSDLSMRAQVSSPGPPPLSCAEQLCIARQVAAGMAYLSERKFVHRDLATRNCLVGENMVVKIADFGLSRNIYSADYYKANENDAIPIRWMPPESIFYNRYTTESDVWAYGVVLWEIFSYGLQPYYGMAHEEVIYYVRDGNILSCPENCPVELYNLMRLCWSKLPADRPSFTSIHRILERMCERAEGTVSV

Which results are given for `N#Cc1cc(-c2ncnc(Nc3ccc(N4CCN(C5COC5)CC4)cc3)n2)ccc1OC1CCOCC1` [Compound 1, 5-(4-((4-(4-(oxetan-3-yl)piperazin-1-yl)phenyl)amino)-1,3,5-triazin-2-yl)-2-((tetrahydro-2H-pyran-4-yl)oxy)benzonitrile]?
inhibition ([1]; read-out: % Inhibition 1): 54%; inhibition ([1]; read-out: % Inhibition 2): 52%; inhibition ([1]; read-out: % Inhibition Avg): 53%; inhibition ([2]; read-out: % Inhibition 1): 15%; inhibition ([2]; read-out: % Inhibition 2): 8%; inhibition ([2]; read-out: % Inhibition Avg): 12%
